In patent US20040086942A1, “Ige receptor antagonists” (priority 2003, published 2004):
Read-outs that look alike come from different tables or passages of the source. Blank lines part the entries; values can stand above or below the molecule they belong to. Where a SMILES comes first, the peptide text is derived from it. Bridges are numbered along the chain shown (N, C = ends). [ ]: non-standard residue; d: D form. Pip = O=C(O)[C@@H]1CCCCN1

Target: T1, alpha subunit of the human FcεRI receptor (Homo sapiens, UniProt P12319)
T1 construct: expressed in transfected cells; host or cells: Chinese hamster ovary (CHO FcεRI+) cells
T1 sequence (P12319 26-257): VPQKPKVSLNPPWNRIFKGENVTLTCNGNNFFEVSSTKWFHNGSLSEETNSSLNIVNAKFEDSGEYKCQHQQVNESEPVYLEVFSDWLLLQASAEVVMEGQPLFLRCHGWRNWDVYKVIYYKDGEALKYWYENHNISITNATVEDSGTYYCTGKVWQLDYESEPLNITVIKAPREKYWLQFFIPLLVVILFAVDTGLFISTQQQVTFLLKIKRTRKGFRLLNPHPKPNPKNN
Assay: cell-based 125I-IgE binding inhibition assay on CHO FcεRI+ cells
Settings: for fold difference in activity relative to comparator peptide: comparator (parent/control peptide) as named in the sentence
Description: . The following day the cells were rinsed three times with PBS and then once with F12/DMEM. Peptide stocks were reconstituted in 100 mM Hepes buffered water, pH 7.2, at a concentration of 5 mg/mL. Working concentrations of the peptide were diluted in assay buffer (see below). 75 ul, of a desired concentration of peptide was added to the top row of a separate 96 well microtiter plate and serially diluted 1:3 in 50 uL of the assay buffer (F12/DMEM, 1% BSA, 0.05% NaN3 and […] Hepes pH 7.2). Starting concentrations ranged from 50-500 uM. Next, 50 uL of the diluted peptide was transferred to the 96 microtiter well plate containing a monolayer of CHO FcεRI+ cells. After a 1 hour incubation at room temperature, 50 uL of ^125I-IgE (1.5 nM) was added to each well and incubated for an additional 45-60 minutes at 4° C. followed by 5 washes with 200 uL of assay buffer. Cells were solubilized with 200 uL of 1 N NaOH and transferred to a 96 microtiter tube for counting in a gamma counter to determine counts bound. The data were plotted using KaleidaGraph 3.0 and fitted using 4-parameter fits. IC50 values were determined for each peptide.
Six peptides based on selected clones from library #516 were synthesized and assayed for the ability to inhibit the binding of ^125I-IgE to a Chinese hamster ovary cell line expressing the alpha subunit of the IgE high affinity receptor, FcεRI. The peptides were synthesized as nine residue monomers and oxidized to allow the formation of a disulfide bridge resulting in a cyclic peptide. The size of each peptide was confirmed by mass spectrometry.

[1] = inhibition of labeled IgE-binding to CHO FcεRI+ cells, read-out: Mean IC50(uM) ± S.D.
[2] = IgE-inhibition activity of synthetic peptides, read-out: Inhibition activity: C+hd 50 +l (uM) ± s.d.

fold reduction in inhibition/binding (truncations and alanine substitutions of IGE063): 6 fold
Structure (SMILES): CSCC[C@H](NC(=O)[C@@H]1CSSC[C@H](NC(=O)[C@H](CCCNC(=N)N)NC(=O)[C@@H]2CCCN2C(=O)[C@H](CC(C)C)NC(=O)[C@H](CC(N)=O)NC(C)=O)C(=O)N[C@@H]([C@@H](C)O)C(=O)N[C@@H](C)C(=O)NCC(=O)N2CCC[C@H]2C(=O)N[C@@H](Cc2c[nH]c3ccccc23)C(=O)NCC(=O)N[C@@H](Cc2c[nH]c3ccccc23)C(=O)N[C@@H](C(C)C)C(=O)N1)C(=O)N[C@@H](C)C(=O)N[C@@H](C)C(=O)N[C@@H](CC(=O)O)C(N)=O [IGE059, AC-NLPRCTAGPWGWVCMAAD-nh2] (Ac-NLPRCTAGPWGWVCMAAD-NH2; disulfide 5-14)

IC50 [1]: 1.4 ± 1.1 µM
Structure (SMILES): CC[C@H](C)[C@H](NC(=O)[C@@H]1CSSC[C@H](NC(=O)[C@H](CCCNC(=N)N)NC(=O)[C@@H]2CCCN2C(=O)[C@H](CC(C)C)NC(=O)[C@@H](N)CC(N)=O)C(=O)N[C@@H]([C@@H](C)O)C(=O)N[C@@H](CCC(=O)O)C(=O)NCC(=O)N2CCC[C@H]2C(=O)N[C@@H](Cc2c[nH]c3ccccc23)C(=O)NCC(=O)N[C@@H](Cc2c[nH]c3ccccc23)C(=O)N[C@@H](C(C)C)C(=O)N1)C(=O)O [IGE075, NLPRCTEGPWGWVCI] (H-NLPRCTEGPWGWVCI-OH; disulfide 5-14; N-terminus and C-terminus assumed)

Structure (SMILES): CC[C@H](C)[C@H](N)C(=O)N[C@H](C(=O)N[C@H]1CSSC[C@@H](C(=O)N[C@@H](Cc2ccc(O)cc2)C(=O)N[C@H](C(N)=O)C(C)C)NC(=O)[C@H](C(C)C)NC(=O)[C@H](CC(=O)O)NC(=O)[C@@H]2CCCN2C(=O)[C@@H]2CSSC[C@H](NC(=O)[C@H](CC(C)C)NC(=O)[C@H](CCCNC(=N)N)NC(=O)[C@@H]3CCCN3C1=O)C(=O)N[C@@H](Cc1ccc(O)cc1)C(=O)N[C@@H](CCC(=O)O)C(=O)N[C@@H](CC(C)C)C(=O)N[C@@H](CC(=O)O)C(=O)N[C@@H](Cc1ccc(O)cc1)C(=O)N[C@@H](CCC(=O)O)C(=O)N[C@@H](CC(C)C)C(=O)N2)C(C)C [IGE141] (H-IVCPRLCYELDYELCPDVCYV-NH2; disulfide 3-19, 7-15)
fold difference in activity relative to comparator peptide: 2 fold

IC50 [1]: > 500 µM
Structure (SMILES): CC[C@H](C)[C@H](NC(=O)[C@@H]1CSSC[C@H](N)C(=O)N[C@@H]([C@@H](C)O)C(=O)N[C@@H](CCC(=O)O)C(=O)NCC(=O)N2CCC[C@H]2C(=O)N[C@@H](Cc2c[nH]c3ccccc23)C(=O)NCC(=O)N[C@@H](Cc2c[nH]c3ccccc23)C(=O)N[C@@H](C(C)C)C(=O)N1)C(N)=O [IGE055, CTEGPWGWVCI-nh2] (H-CTEGPWGWVCI-NH2; disulfide 1-10)

IC50 [1]: 1.4 ± 1 µM
Structure (SMILES): CSCC[C@H](NC(=O)[C@@H]1CSSC[C@H](NC(=O)[C@H](CCCNC(=N)N)NC(=O)[C@@H]2CCCN2C(=O)[C@H](CC(C)C)NC(=O)[C@@H](N)CC(N)=O)C(=O)N[C@@H]([C@@H](C)O)C(=O)N[C@@H](CCC(=O)O)C(=O)NCC(=O)N2CCC[C@H]2C(=O)N[C@@H](Cc2c[nH]c3ccccc23)C(=O)NCC(=O)N[C@@H](Cc2c[nH]c3ccccc23)C(=O)N[C@@H](C(C)C)C(=O)N1)C(=O)N[C@@H](C)C(=O)N[C@@H](C)C(=O)N[C@@H](CC(=O)O)C(N)=O [IGE043, NLPRCTEGPWGWVCMAAD-nh2] (H-NLPRCTEGPWGWVCMAAD-NH2; disulfide 5-14)

IC50 [1]: 1.8 ± 1.3 µM
Structure (SMILES): CSCC[C@H](NC(=O)[C@@H]1CSSC[C@H](NC(=O)[C@H](CCCNC(=N)N)NC(=O)[C@@H]2CCCN2C(=O)[C@H](CC(C)C)NC(=O)[C@H](CC(N)=O)NC(C)=O)C(=O)N[C@@H]([C@@H](C)O)C(=O)N[C@@H](CCC(=O)O)C(=O)NCC(=O)N2CCC[C@H]2C(=O)N[C@@H](Cc2c[nH]c3ccccc23)C(=O)NCC(=O)N[C@@H](Cc2c[nH]c3ccccc23)C(=O)N[C@@H](C(C)C)C(=O)N1)C(N)=O [IGE058, Ac-NLPRCTEGPWGWVCM-nh2] (Ac-NLPRCTEGPWGWVCM-NH2; disulfide 5-14)

IC50 [1]: 300 ± 269 µM
Structure (SMILES): CC[C@H](C)[C@H](NC(=O)[C@@H]1CSSC[C@H](N)C(=O)N[C@@H](CC(C)C)C(=O)N[C@@H](CCC(=O)O)C(=O)NCC(=O)N2CCC[C@H]2C(=O)N[C@@H](Cc2c[nH]c3ccccc23)C(=O)NCC(=O)N[C@@H](Cc2c[nH]c3ccccc23)C(=O)N[C@@H](Cc2ccccc2)C(=O)N1)C(N)=O [IGE045, CLEGPWGWFCI-nh2] (H-CLEGPWGWFCI-NH2; disulfide 1-10; N-terminus assumed)

Structure (SMILES): CC(C)C[C@@H]1NC(=O)[C@H](CCC(=O)O)NC(=O)[C@H](C)NC(=O)CNC(=O)CNC(=O)[C@H](Cc2ccccc2)NC(=O)[C@H](Cc2ccc(O)cc2)NC(=O)[C@@H]2CSSC[C@H](NC1=O)C(=O)N1CCC[C@H]1C(=O)N[C@@H](CC(=O)O)C(=O)N[C@@H](C(C)C)C(=O)N[C@H](C(=O)N[C@@H](Cc1ccc(O)cc1)C(=O)N[C@H](C(N)=O)C(C)C)CSSC[C@H](NC(=O)[C@H](CCC(N)=O)NC(=O)[C@@H](N)C(C)C)C(=O)N1CCCC[C@H]1C(=O)N[C@@H](Cc1c[nH]cn1)C(=O)N[C@@H](Cc1ccccc1)C(=O)N2 [IGE162-2, VQC(Pip)HFCYFGGAELCPDVCYV-nh2] (H-VQC[Pip]HFCYFGGAELCPDVCYV-NH2; disulfide 3-19, 7-15)
fold difference in activity relative to comparator peptide: little change in activity

inhibiting 125I-IgE binding to cell surface expressed FcεRI (in words): not active
IC50 [2]: > 500 µM
Structure (SMILES): CC(C)C[C@H](NC(=O)[C@H](C)N)C(=O)N[C@H]1CSSC[C@@H](C(=O)N[C@@H](Cc2ccc(O)cc2)C(=O)N[C@H](C(N)=O)C(C)C)NC(=O)[C@H](C(C)C)NC(=O)[C@H](CCC(=O)O)NC(=O)[C@@H]2CCCN2C1=O [IGE035, ALCPEVCYV-nh2] (H-ALCPEVCYV-NH2; disulfide 3-7)

IC50 [1]: > 500 µM
Structure (SMILES): CC[C@H](C)[C@H](NC(=O)[C@@H]1CSSC[C@H](NC(C)=O)C(=O)N[C@@H]([C@@H](C)O)C(=O)N[C@@H](CCC(=O)O)C(=O)NCC(=O)N2CCC[C@H]2C(=O)N[C@@H](Cc2c[nH]c3ccccc23)C(=O)NCC(=O)N[C@@H](Cc2c[nH]c3ccccc23)C(=O)N[C@@H](C(C)C)C(=O)N1)C(N)=O [IGE056, Ac-CTEGPWGWVCI-nh2] (Ac-CTEGPWGWVCI-NH2; disulfide 1-10)

IC50 (IGE037: initially, read-out: IC50): > 160 µM
Structure (SMILES): CC[C@H](C)[C@H](NC(=O)[C@@H]1CSSC[C@H](NC(=O)[C@H](CC(C)C)NC(=O)[C@@H](NC(=O)CNC(=O)[C@@H](N)CCSC)[C@@H](C)O)C(=O)N[C@@H](CC(C)C)C(=O)N[C@@H](CCC(=O)O)C(=O)NCC(=O)N2CCC[C@H]2C(=O)N[C@@H](CCC(=O)O)C(=O)NCC(=O)N[C@@H](Cc2c[nH]c3ccccc23)C(=O)N[C@@H](Cc2ccccc2)C(=O)N1)C(=O)N[C@@H](CCC(=O)O)C(=O)N[C@@H](CO)C(=O)N[C@@H](C)C(=O)O [MGTLCLEGPEGWFCIESA] (H-MGTLCLEGPEGWFCIESA-OH; disulfide 5-14)

inhibiting 125I-IgE binding to cell surface expressed FcεRI (in words): not active
IC50 [2]: > 500 µM
Structure (SMILES): CC(=O)N[C@@H](C)C(=O)N[C@@H](CC(C)C)C(=O)N[C@H]1CSSC[C@@H](C(=O)N[C@@H](Cc2ccc(O)cc2)C(=O)N[C@H](C(N)=O)C(C)C)NC(=O)[C@H](C(C)C)NC(=O)[C@H](CCC(=O)O)NC(=O)[C@@H]2CCCN2C1=O [IGE036, Ac-ALCPEVCYV-nh2] (Ac-ALCPEVCYV-NH2; disulfide 3-7)

IC50 [1]: > 500 µM
Structure (SMILES): CSCC[C@H](NC(=O)[C@@H]1CSSC[C@H](NC(=O)[C@H](CCCNC(=N)N)NC(=O)[C@@H]2CCCN2C(=O)[C@H](CC(C)C)NC(=O)[C@@H](N)CC(N)=O)C(=O)N[C@@H]([C@@H](C)O)C(=O)N[C@@H](CCC(=O)O)C(=O)NCC(=O)N[C@@H](C)C(=O)N[C@@H](Cc2c[nH]c3ccccc23)C(=O)NCC(=O)N[C@@H](Cc2c[nH]c3ccccc23)C(=O)N[C@@H](C(C)C)C(=O)N1)C(=O)O [IGE070, NLPRCTEGAWGWVCM] (H-NLPRCTEGAWGWVCM-OH; disulfide 5-14)
